Laboratory results from patent US20260226084A1, “DUAL RAF AND TUBULIN INHIBITORS AND METHODS OF USE THEREOF” (Deciphera Pharmaceuticals, LLC, priority 2023, published 2026).
Like-named read-outs stand apart in the source and are kept apart here.

How the values were obtained:
[1] = tested on: tubulin polymerization in HCT-116 cells; assay: Cellular Tubulin Polymerization Assay; type: cell-based; conditions: Homo sapiens, Table 5, read-out: Tubulin Cellular
Protocol: HCT-116 cells (catalog #CCL-247) are obtained from the American Type Culture Collect (ATCC, Manassas, VA). Briefly, cells are grown in McCoy's 5A supplemented with 10% characterized fetal bovine serum (Invitrogen, Carlsbad, CA) and 1% Penicillin/Streptomycin/L-Glutamine at 37° C., 5% CO2, and 95% humidity. Cells are expanded until reaching 70-95% confluency at which point they are subcultured or harvested for assay use. 450000 cells are added per well in 1500 μL complete growth medium in a tissue culture treated, 12-well plate. Plates are incubated for 18 to 24 h at 37° C., 5% CO2, and 95% humidity. At the end of the incubation, 2000 μL of base culture media is added to each well, followed by a serial dilution of compound. Plates are incubated for an additional 1 h at 37° C., 5% CO2, and 95% humidity. Lysates are generated by the addition of 100 μL Lysis and Microtubule Stabilization Buffer 1 (LMS01, Cytoskeleton Inc, Denver, CO) supplemented with GTP (BST06, Cytoskeleton Inc), ATP (BSA04, Cytoskeleton Inc), and Protease Inhibitor Cocktail Stock (PIC02, Cytoskeleton Inc). Cells are scraped off wells using a rubber cell scraper and collected in a clean 96-well plate. Lysates are centrifuged at 1000×g, 37° C. for 10 min and supernatant fraction is placed into an additional 96-well plate. The remaining pellet fraction is reconstituted in 100 μL LMS01 buffer and sonicated for 10 min. Pellet and Supernatant fractions are probed for α-tubulin via western blot analysis on the Jess System or equivalent (Bio-techne, Minneapolis, MN). Data is analyzed using Prism software (Graphpad, San Diego, CA) to calculate IC50values.

HCT-116 cells = assay: HCT-116 Cell Proliferation Assay; type: cell-based; conditions: Homo sapiens
Method in brief: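 IC50 values come from resazurin fluorescence (540 nm excitation, 600 nm emission) added for 4 to 5 h after compound treatment. Treatment: serially diluted compound in triplicate on 375 HCT-116 cells per well in complete McCoy's 5A/10% FBS, 67 to 72 hours, 37 °C, 5% CO2.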

MiaPaca-2 cells = assay: MiaPaca-2 Cell Proliferation Assay; type: cell-based; conditions: Homo sapiens
Method in brief: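 Viability was read as resazurin fluorescence (540 nm excitation, 600 nm emission) after 5–6 h with dye. Compounds were tested as serial dilutions in triplicate, with IC50 derived from the dose–response.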

HPAF-II cells = assay: HPAF-II Cell Proliferation Assay; type: cell-based; conditions: Homo sapiens
Method in brief: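 Viability read-out was resazurin fluorescence (540 nm excitation, 600 nm emission), developed 18–24 h after a 115–120 h compound exposure of 750 HPAF-II cells per well in MEM/10% FBS at 37 °C. Compound was tested as a serial dilution in triplicate, and IC50 values were calculated.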

Porcine Brain Tubulin = biological target: T1, Porcine Brain Tubulin (Sus scrofa, UniProt P02550+P02554); assay: Biochemical Tubulin Polymerization Assay
T1 construct: Porcine Brain Tubulin (T240); purchased Cytoskeleton, Inc T240; BK011P; host or cells: porcine brain (tissue-purified)

[2] = biological target: T2, B-Raf kinase (SEQ ID NO: 1) (Homo sapiens, UniProt P15056); assay: Biochemical Assay for B-Raf (coupled pyruvate kinase/lactate dehydrogenase assay)
T2 construct: GST (N); purchased Sigma

[3] = biological target: T3, C-Raf kinase (SEQ ID NO: 2) (Homo sapiens, UniProt P04049, Y340D/Y341D); assay: Biochemical Assay for C-Raf (coupled pyruvate kinase/lactate dehydrogenase assay)
T3 construct: C-Raf residues 306-end; Y340D, Y341D with; GST (N); purchased Sigma

Pa16c cells = assay: Pa16c Cell Proliferation Assay; type: cell-based; conditions: Table 2, read-out: Inhibition of cell proliferation in Pa16c (IC50 class)
Method in brief: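 Proliferation read-out: resazurin fluorescence (540 nm excitation, 600 nm emission) after an extra 18 to 24 h. Before that, compound dilution series (triplicate) stayed on 750 Pa16c cells/well in complete DMEM/10% FBS for 67 to 72 h at 37° C. IC50 values derived from the curves.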

[4] = Table 5, HCT-116 mutant KRAS colorectal cancer cell line, read-out: HCT-116
[5] = MIA PaCa-2, Table 5, MiaPaca-2 mutant KRAS pancreatic cancer cell line, read-out: MiaPaca-2
[6] = Table 5, HPAF-II mutant KRAS pancreatic cancer cell line, read-out: HPAF-II
[7] = Table 3, Tubulin Biochemical assay, read-out: Tubulin Biochem (IC50 class)
[8] = 1 mM ATP, read-out: BRAF (inhibition of biochemical activity, IC50)
[9] = Table 3, read-out: BRAF (IC50 class)
[10] = HCT-116, HCT-116 cells, Table 2, read-out: Inhibition of cell proliferation in HCT-116 (IC50 class)
[11] = HCT-116, Table 3, read-out: HCT-116 (IC50 class)
[12] = 1 mM ATP, read-out: CRAF (inhibition of biochemical activity, IC50)
[13] = Table 3, read-out: CRAF (IC50 class)
[14] = MIA PaCa-2, MiaPaca-2 cells, Table 2, read-out: Inhibition of cell proliferation in MiaPaca-2 (IC50 class)
[15] = MIA PaCa-2, Table 3, read-out: MiaPaca-2 (IC50 class)
[16] = HPAF-II, HPAF-II cells, Table 2, read-out: Inhibition of cell proliferation in HPAF-II (IC50 class)
[17] = HPAF-II, Table 3, read-out: HPAF-II (IC50 class)

T2 sequence (P15056 416-766): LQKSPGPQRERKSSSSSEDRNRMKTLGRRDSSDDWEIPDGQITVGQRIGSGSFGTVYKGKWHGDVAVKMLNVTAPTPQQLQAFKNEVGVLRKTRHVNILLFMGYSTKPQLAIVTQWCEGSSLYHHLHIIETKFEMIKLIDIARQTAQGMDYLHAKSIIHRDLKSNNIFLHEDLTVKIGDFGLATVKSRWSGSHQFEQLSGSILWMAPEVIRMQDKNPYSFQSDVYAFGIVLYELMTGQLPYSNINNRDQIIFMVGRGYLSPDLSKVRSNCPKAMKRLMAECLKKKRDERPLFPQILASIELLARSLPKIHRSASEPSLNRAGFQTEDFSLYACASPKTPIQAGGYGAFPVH
T3 sequence (P04049 307-648 Y340D/Y341D): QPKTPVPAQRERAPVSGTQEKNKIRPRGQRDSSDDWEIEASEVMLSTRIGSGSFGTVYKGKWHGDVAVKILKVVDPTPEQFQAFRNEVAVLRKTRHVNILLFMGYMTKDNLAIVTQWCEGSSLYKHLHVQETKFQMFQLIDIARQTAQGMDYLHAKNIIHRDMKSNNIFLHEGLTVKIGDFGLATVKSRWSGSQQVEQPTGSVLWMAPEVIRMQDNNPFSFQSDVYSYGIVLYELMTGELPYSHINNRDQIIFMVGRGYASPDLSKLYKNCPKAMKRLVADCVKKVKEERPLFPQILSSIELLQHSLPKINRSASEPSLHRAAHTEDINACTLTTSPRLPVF
T1 sequence (P02550 whole entry): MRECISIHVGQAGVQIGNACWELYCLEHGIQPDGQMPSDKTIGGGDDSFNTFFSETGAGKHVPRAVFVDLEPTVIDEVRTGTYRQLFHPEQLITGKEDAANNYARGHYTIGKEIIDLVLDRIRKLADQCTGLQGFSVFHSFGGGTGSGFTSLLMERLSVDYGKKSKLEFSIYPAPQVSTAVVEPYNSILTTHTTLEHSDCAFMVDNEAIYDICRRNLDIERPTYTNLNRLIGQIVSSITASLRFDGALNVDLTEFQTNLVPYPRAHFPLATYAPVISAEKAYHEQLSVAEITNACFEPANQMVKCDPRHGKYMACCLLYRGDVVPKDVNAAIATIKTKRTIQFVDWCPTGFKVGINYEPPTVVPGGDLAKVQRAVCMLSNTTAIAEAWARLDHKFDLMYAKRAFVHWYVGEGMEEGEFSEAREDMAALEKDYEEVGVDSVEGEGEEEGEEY
T1 sequence (P02554 whole entry): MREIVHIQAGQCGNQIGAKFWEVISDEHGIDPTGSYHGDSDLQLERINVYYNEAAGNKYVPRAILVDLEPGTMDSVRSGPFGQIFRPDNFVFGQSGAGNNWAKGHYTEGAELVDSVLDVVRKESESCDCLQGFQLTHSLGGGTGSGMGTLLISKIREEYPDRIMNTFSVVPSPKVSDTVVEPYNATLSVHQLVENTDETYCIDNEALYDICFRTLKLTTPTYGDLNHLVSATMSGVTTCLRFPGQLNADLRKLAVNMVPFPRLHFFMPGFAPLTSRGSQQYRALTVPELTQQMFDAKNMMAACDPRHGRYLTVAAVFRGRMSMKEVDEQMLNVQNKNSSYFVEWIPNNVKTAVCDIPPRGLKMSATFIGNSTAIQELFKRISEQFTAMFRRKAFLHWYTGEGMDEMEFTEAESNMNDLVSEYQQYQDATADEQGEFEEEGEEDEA

C[C@@H](NC(=O)c1ncnc(N)c1Cl)c1ncc(C(=O)Nc2cc(C(F)(F)F)c(Cl)cn2)s1 [Tovorafenib, reference compound]
IC50 [1]: 1 to 10 µM
IC50 (HCT-116 cells; [4]): 1 to 10 µM
IC50 (MiaPaca-2 cells; [5]): 1 to 10 µM
IC50 (HPAF-II cells; [6]): 1 to 10 µM

Cc1ccc(NC(=O)N2CC[C@@H](CC(F)(F)F)C2)cc1-c1cc(N[C@H](C)CO)nc(N2CCOCC2)c1 [Exarafenib, reference compound]
IC50 [1]: 1 to 10 µM
IC50 (HCT-116 cells; [4]): 0.5 to 1 µM
IC50 (MiaPaca-2 cells; [5]): 1 to 10 µM
IC50 (HPAF-II cells; [6]): 1 to 10 µM

CCCS(=O)(=O)Nc1ccc(F)c(C(=O)c2c[nH]c3ncc(-c4ccc(Cl)cc4)cc23)c1F [Vemurafenib, vemurafenib]
IC50 [1]: 1 to 10 µM

CC(C)(C)c1nc(-c2cccc(NS(=O)(=O)c3c(F)cccc3F)c2F)c(-c2ccnc(N)n2)s1 [Dabrafenib, dabrafenib]
IC50 [1]: 1 to 10 µM

Cc1ccc2c(Nc3cccc(Cl)c3F)nccc2c1NC(=O)c1csc2c(N)ncnc12 [Belvarafenib, reference compound]
IC50 (Porcine Brain Tubulin; Table 5, previously disclosed BRAF/CRAF inhibitors, read-out: Tubulin Biochem): > 100 µM
IC50 [1]: 1 to 10 µM
IC50 ([2]; Table 5, previously disclosed BRAF/CRAF inhibitors, read-out: BRAF): < 0.1 µM
IC50 ([3]; Table 5, previously disclosed BRAF/CRAF inhibitors, read-out: CRAF): < 0.1 µM

Cc1ccc(NC(=O)c2ccnc(C(F)(F)F)c2)cc1-c1cc(OCCO)nc(N2CCOCC2)c1 [Naporafenib]
IC50 [1]: 1 to 10 µM

Cc1ccc(NC(=O)c2cc(C(F)(F)F)cnn2)cc1-c1cc(N[C@H](C)CO)nc(-c2cn[nH]c2)c1 [Example 119]
IC50 (Porcine Brain Tubulin; [7]): < 3 µM
IC50 (Pa16c cells): < 0.1 µM
IC50 [2, 8]: < 0.1 µM
IC50 [2, 9]: < 0.1 µM
IC50 (HCT-116 cells; [10]): < 0.1 µM
IC50 (HCT-116 cells; [11]): < 0.1 µM
IC50 [3, 12]: < 0.1 µM
IC50 [3, 13]: < 0.1 µM
IC50 (MiaPaca-2 cells; [14]): < 0.1 µM
IC50 (MiaPaca-2 cells; [15]): < 0.1 µM
IC50 (HPAF-II cells; [16]): < 0.1 µM
IC50 (HPAF-II cells; [17]): < 0.1 µM

Cc1ccc(NC(=O)c2cncc(C(F)(F)F)c2)cc1-c1cncc(-c2cc(NC(=O)C3CC3)ncn2)c1 [Example 66]
IC50 (Porcine Brain Tubulin; [7]): > 100 µM
IC50 (Pa16c cells): 0.5 to 1 µM
IC50 [2, 8]: < 0.1 µM
IC50 [2, 9]: < 0.1 µM
IC50 (HCT-116 cells; [10]): < 0.1 µM
IC50 (HCT-116 cells; [11]): < 0.1 µM
IC50 [3, 12]: < 0.1 µM
IC50 [3, 13]: < 0.1 µM
IC50 (MiaPaca-2 cells; [14]): 0.1 to 0.5 µM
IC50 (MiaPaca-2 cells; [15]): 0.1 to 0.5 µM
IC50 (HPAF-II cells; [16]): < 0.1 µM
IC50 (HPAF-II cells; [17]): < 0.1 µM
